# Results published in US5643954A, “Method of preventing and alleviating stress in a healthy mammal in need thereof” (priority 1993, dated 1997).
# Where two headings read alike, the source gives them in different places.
# How the values were obtained:
# [1] = system: acute stress action (electric painful influence)
# Source text: The test and control young rats were subjected to a single electric painful influence in a matter of a second ("electric floor" 59 hertz, 35 v). […] Sixty minutes after, the behaviour of animals was investigated in the "open field" test.
# [2] = Experimental: The examination of attention was performed by using Schulte test which provides for a square chart produced before a patient (tested) that is divided into 49 squares containing confusedly arranged red and black numbers (24 and 25, respectively). The numbers are sought in the chart in strict order, say, red ones in increasing order and black ones in decreasing order, and along with this, the time is fixed for execution of the entire assignment, the time of search of each and every figure and the number of mistakes. The test makes it possible to assess attention and reveal the persons having enhanced emotional responses.
# To study the state of short-lived memory, use was made of a test based on reproduction of 10 two-digit numbers shown on the screen for 20 sec. […] Sensomotor reactions were evaluated with the aid of a visual-motor reaction (differentiation of optical signals from 20 applications).
# [3] = for Number of errors per 500 symbols: M ± m
# Experimental: Examination of the mental capacity dynamics of the tested was performed in two stages.
# [4] = system: electrical-shock-caused paroxysms
# chronic emotional stress = conditions: 1 mg/kg tongue root; for 15% ethanol daily consumed: M ± m
# Source text: It is commonly known that manipulations with animals (cell sampling, administration of substances, water included) are a unique stress factor and cause a prolonged state of excitement, disturbance, aggressiveness.
# [5] = system: electric painful irritation; conditions: 60 min before experiment
# Remark: listed apart in the source
# strychnine effects = conditions: for Threshold doses Strychnine 0,01% solution, death of animal / Threshold doses Strychnine 0,01% solution, start of twitch: M ± m
# [6] = system: bioelectric activity of rats' brain; assay: spontaneous bioelectrical activity of rats' brain (EEG, implanted electrodes); format: in vivo; parameters: Amplitude, slow activ. / Amplitude, fast activ.: unit not given here; conditions: for Amplitude, fast activ. / Amplitude, slow activ.: M ± m
# EEG = conditions: for Biopotential slow form amplitude / Expression of biopotential slow forms / Expression of pathologically acute waves and peaked oscillation / Expression of α-rhythm / Paroxysmal bursts / α-frequency / α-oscillation amplitude / β-rhythm amplitude / β-rhythm expression / β-rhythm, low-frequency expression: M
# Corazol twitches = assay: comparative interaction test with Corazol, rats; format: in vivo; conditions: M ± m
# [7] = for Addition: after taking
# Source text: A test permits evaluating the rate of counting-computing operations per unit time (in each and every minute), duration of execution of the task (time spent for adding 184 pairs of numbers), the number of mistakes, the speed of attention switching and the degree of weariness.
# [8] = format: in vivo; conditions: in vivo
# [9] = after taking the preparation, M ± m
# [10] = week's fourth day, after classes
# [11] = week's fourth day, before classes, after dose
# [12] = week's second day, after classes
# [13] = week's second day, before classes, after dose
# [14] = 40 mg/kg week-long introduction
# [15] = 200 mg/kg single administration
# [16] = taken 30 minutes before an exam
# [17] = 30 min after taking the claimed preparation
substance,measurement,setting,value
aminoacetic acid [claimed preparation],Intersection of a floor's center,[1]; 2 mg/kg on tongue root 20 min before electric painful influence,0
same,Defecation,"[1]; 2 mg/kg on tongue root 20 min before electric painful influence, M ± m",0.4 ± 0.28
same,stress-protective effect,[1]; preliminarily administered,displays a stress-protective effect and considerably reduces on-stress-dependent excitement manifestations
same,cases with increased volume of short-lived memory,[2]; 2 mg/kg one time,58.9%
same,cases with subjective and objective improvement of general state,[2]; 2 mg/kg one time,87.2%
same,students with reduction of latent period of visual-motor reaction and number of differentiation disruptions,[2]; 2 mg/kg one time,56.4%
same,tested whose short-lived memory did not worsen and remained on the initial level,[2]; 2 mg/kg one time,25.7%
same,increase of volume of short-lived memory,"[2]; 2 mg/kg one time, average",25%
same,attention,"[2]; 2 mg/kg one time, in words",reducing the attention switching time and the number of mistakes made
same,Attention switching number of errors,[2]; [9],3.20 ± 0.39
same,Attention switching time,[2]; [9],95.39 ± 6.11 s
same,Shortlived memory,[2]; [9],46.92 ± 2.58 nom. units
same,Visual-motor reaction differentiation disruption,[2]; [9],0.46 ± 0.13 nominal units
same,Visual-motor reaction latent period,[2]; [9],0.51 ± 0.01 min
same,Work without mistakes,[3]; [10],14.3%
same,Number of errors per 500 symbols,[3]; [10],8.4 ± 1.2
same,Work without mistakes,[3]; [11],28.6%
same,Number of errors per 500 symbols,[3]; [11],7.6 ± 1.9
same,Work without mistakes,[3]; [12],25.0%
same,Number of errors per 500 symbols,[3]; [12],7.8 ± 1.8
same,Work without mistakes,[3]; [13],16.5%
same,Number of errors per 500 symbols,[3]; [13],6.5 ± 1.6
same,Maximal electric shock death of animal,[4]; 2 mg/kg single administration,70%
same,Maximal electric shock tonico-extensor phase,[4]; 2 mg/kg single administration,100%
same,Maximal electric shock death of animal,[4]; 2 mg/kg week-long introduction,60%
same,Maximal electric shock tonico-extensor phase,[4]; 2 mg/kg week-long introduction,100%
same,Maximal electric shock death of animal,[4]; 40 mg/kg single administration,40%
same,Maximal electric shock tonico-extensor phase,[4]; 40 mg/kg single administration,100%
same,Maximal electric shock death of animal,[4]; [14],40%
same,Maximal electric shock tonico-extensor phase,[4]; [14],100%
same,Maximal electric shock death of animal,[4]; 80 mg/kg single administration,40%
same,Maximal electric shock tonico-extensor phase,[4]; 80 mg/kg single administration,100%
same,Maximal electric shock death of animal,[4]; [15],70%
same,Maximal electric shock tonico-extensor phase,[4]; [15],100%
same,activity towards electrical-shock-caused paroxysms,[4]; in words,inactive towards electrical-shock- caused paroxysms
same,alcohol motivation,chronic emotional stress,considerably reduces it
same,15% ethanol daily consumed,chronic emotional stress; 1 week,3.6 ± 0.3 mL
same,15% ethanol daily consumed,chronic emotional stress; 2 week,4.0 ± 0.3 mL
same,15% ethanol daily consumed,chronic emotional stress; 3 week,2.3 ± 0.3 mL
same,15% ethanol daily consumed,chronic emotional stress; 4 week,2.7 ± 0.2 mL
same,emotional reaction (squeak),[5],did not exert influence on an emotional reaction
same,increase of aggression reaction threshold,[5],5±0.8 v
same,number of fights,[5],reduced the number of fights
same,strengthening of motor component (jumps),[5],1-1.5 points
same,marks exceeding those of the school year,[16],0.5-1 point
same,students noting disappearance of fear and internal discomfort,[16],95%
same,good and excellent marks 4 and 5,"taken before an exam, chiefly in maths",80%
same,"Threshold doses Strychnine 0,01% solution, death of animal",strychnine effects; 2 mg/kg single administration,0.21 ± 0.007 mL
same,"Threshold doses Strychnine 0,01% solution, start of twitch",strychnine effects; 2 mg/kg single administration,0.17 ± 0.008 mL
same,"Threshold doses Strychnine 0,01% solution, death of animal",strychnine effects; 40 mg/kg single administration,0.21 ± 0.005 mL
same,"Threshold doses Strychnine 0,01% solution, start of twitch",strychnine effects; 40 mg/kg single administration,0.18 ± 0.007 mL
same,"Threshold doses Strychnine 0,01% solution, death of animal",strychnine effects; 80 mg/kg single administration,0.18 ± 0.006 mL
same,"Threshold doses Strychnine 0,01% solution, start of twitch",strychnine effects; 80 mg/kg single administration,0.17 ± 0.005 mL
same,"Threshold doses Strychnine 0,01% solution, death of animal",strychnine effects; [15],0.19 ± 0.006 mL
same,"Threshold doses Strychnine 0,01% solution, start of twitch",strychnine effects; [15],0.15 ± 0.008 mL
same,influence on strychnine effects,strychnine effects; in words,does not practically influence said strychnine effects
same,"Amplitude, fast activ.",[6]; 2 mg/kg,325 ± 24
same,"Amplitude, slow activ.",[6]; 2 mg/kg,315 ± 14
same,Maximal effect appearance time from the start of experiment,[6]; 40 mg/kg,70 min
same,Nature of effect,[6]; 40 mg/kg,episodic
same,"Nature of effect, episodes",[6]; 40 mg/kg,1-2 episodes per hr
same,synchronizing effect on encephalogram,[6]; 40 mg/kg intraperitoneally,tends to call for a synchronizing effect on an encephalogram
same,"Amplitude, fast activ.",[6]; 40 mg/kg,243 ± 10
same,"Amplitude, slow activ.",[6]; 40 mg/kg,380 ± 21
same,EEG variation a),"EEG; 1,5 hrs after a dose",2.89 arbitrary units
same,EEG variation b),"EEG; 1,5 hrs after a dose",2.79 arbitrary units
same,Biopotential slow form amplitude,"EEG; 1,5 hrs after a dose",41.40 mV
same,Expression of biopotential slow forms,"EEG; 1,5 hrs after a dose",2.85 arbitrary units
same,Expression of pathologically acute waves and peaked oscillation,"EEG; 1,5 hrs after a dose",1.71 arbitrary units
same,Expression of α-rhythm,"EEG; 1,5 hrs after a dose",4.89 arbitrary units
same,Paroxysmal bursts,"EEG; 1,5 hrs after a dose",2.21 arbitrary units
same,α-frequency,"EEG; 1,5 hrs after a dose",10.60 Hertz
same,α-oscillation amplitude,"EEG; 1,5 hrs after a dose",105.70 mV
same,β-rhythm amplitude,"EEG; 1,5 hrs after a dose",13.60 mV
same,β-rhythm expression,"EEG; 1,5 hrs after a dose",2.14 arbitrary units
same,"β-rhythm, low-frequency expression","EEG; 1,5 hrs after a dose",1.21 arbitrary units
same,EEG variation a),EEG; after two-week course,3.00 arbitrary units
same,EEG variation b),EEG; after two-week course,2.42 arbitrary units
same,Biopotential slow form amplitude,EEG; after two-week course,44.20 mV
same,Expression of biopotential slow forms,EEG; after two-week course,3.60 arbitrary units
same,Expression of pathologically acute waves and peaked oscillation,EEG; after two-week course,1.93 arbitrary units
same,Expression of α-rhythm,EEG; after two-week course,4.54 arbitrary units
same,Paroxysmal bursts,EEG; after two-week course,3.00 arbitrary units
same,α-frequency,EEG; after two-week course,10.40 Hertz
same,α-oscillation amplitude,EEG; after two-week course,95.00 mV
same,β-rhythm amplitude,EEG; after two-week course,16.40 mV
same,β-rhythm expression,EEG; after two-week course,2.07 arbitrary units
same,"β-rhythm, low-frequency expression",EEG; after two-week course,1.29 arbitrary units
same,EEG-based activity,"EEG; all examined EEG indicators, in words",has nootropic activity
same,"Corazol twitches, latent period",Corazol twitches; 20 mg/kg,41.0 ± 0.3 min
same,"Corazol twitches, latent period",Corazol twitches; 80 mg/kg,45.0 ± 0.9 min
same,"Corazol twitches, latent period",Corazol twitches; 200 mg/kg,42.5 ± 0.7 min
same,cases with reduced time for adding up numbers,[7]; 30 min after single dose,79.5%
same,number of errors in counting,[7]; 30 min after single dose,diminishes twice
same,reduction of time for adding up numbers,[7]; 30 min after single dose,1.5 to 2 min
same,Number of mistakes,[7]; [17],1
same,Those making mistakes,[7]; [17],40%
same,Speed of addition,"[7]; 30 min after taking the claimed preparation, M ± m",52.0 ± 1.9 pair/min
same,Addition,"[7]; alcoholic abstinence syndrome (2nd day), M ± m",32.0 ± 1.6 pair/min
same,Addition,"[7]; remission period, M ± m",51.0 ± 1.8 pair/min
same,sedative and synchronizing effect on EEG,[8],displaying at the same time a sedative and synchronizing effect on EEG
